Experimental data from publication PMC7352223, “Mapping of CaM, S100A1 and PIP2-Binding Epitopes in the Intracellular N- and C-Termini of TRPM4” (International Journal of Molecular Sciences, 2020).
Residues, ends and D or L forms follow the SMILES beside them.

target: T1, calmodulin (CaM) (Homo sapiens, UniProt P0DP23); assay: Steady-state fluorescence anisotropy (FA) binding assay, peptide titrated with CaM; conditions: carboxyfluorescein-labelled peptide titrated with CaM, 25 mM Tris-HCl pH 7.5, 250 mM NaCl, 200 µM CaCl2, 25 °C, value (SD), anisotropy measured six times per concentration, read-out: KD of peptide/CaM complex, CaM/Ca2+ KD (SD)
T1 construct: made in house
Method: First, we studied whether M4nt_WT and M4ct_WT are able to bind CaM and S100A1 at all. The carboxyfluorescein-labelled M4nt_WT and M4ct_WT peptides were titrated with increasing amounts of CaM or S100A1, and FA was measured for each point of titration. The FA increased due to a slower rotational diffusion of the formed complexes, and the fraction bound (Fb) of M4nt_WT and M4ct_WT could be calculated (Figure 2A, Figure 3A, Figure 4A, Figure 5A). Since the specific interactions of M4nt_WT and M4ct_WT with CaM/S100A1 were calcium-dependent, all samples were measured in the presence of 200-μM CaCl2. The fluorescence lifetimes τi of all peptides and their complexes (and all the following characterised peptides/complexes) were constant during all the experiments, with the values close to 3 ns. […] Overall, the FA results indicated the high affinity of M4nt_WT and M4ct_WT peptides to CaM and S100A1. Both M4nt_WT and M4ct_WT peptides thus seemed to represent potential binding epitopes on TRPM4.
The experiments were performed on a K2 spectrofluorometer (ISS, Inc., Champaign, IL, USA) at 25 °C in a cuvette with a 2-mm path length. […] Fluorescence was excited at 490 nm, and polarised emission components III and I⊥, required for the construction of the emission anisotropy, were acquired and averaged quasi-simultaneously at 525 nm by repetitive switching of the emission polariser. […] The anisotropy values r were calculated from the fluorescence intensities in the parallel (III) and perpendicular (I⊥) directions according to the relationship r = (III − GI⊥)/(III + 2GI⊥), where G is a factor correcting for different transmittance of the detection channel for the two measured polarisations (III and I⊥). The G factor was determined in a separate experiment. The measurements were repeated six times for each ligand concentration; the mean anisotropy value was calculated and used for further analysis. […] The Q was evaluated for every binding experiment from the ratio of the fluorescence lifetimes of the bound to the free M4nt, M4ct or PIP2: Q = τbound/τfree. […]

Kd [µM] | Structure (SMILES)
27.2 | CC(C)C[C@H](NC(=O)[C@@H]1CCCN1C(=O)[C@H](CS)NC(=O)[C@H](CCCNC(=N)N)NC(=O)[C@H](CCCNC(=N)N)NC(=O)[C@H](CC(C)C)NC(=O)[C@H](CC(C)C)NC(=O)[C@H](CC(C)C)NC(=O)[C@H](CCCNC(=N)N)NC(=O)[C@H](C)NC(=O)[C@H](C)NC(=O)[C@H](CCCNC(=N)N)NC(=O)[C@@H](NC(=O)[C@H](CCC(=O)O)NC(=O)[C@H](CO)NC(=O)[C@H](CO)NC(=O)[C@H](C)NC(=O)[C@H](Cc1ccc(O)cc1)NC(=O)[C@H](CS)NC(=O)[C@H](CCC(=O)O)NC(=O)CNC(=O)[C@@H](N)Cc1ccccc1)C(C)C)C(=O)O [M4nt_R632A] (H-FGECYASSEVRAARLLLRRCPL-OH)
80 | CC(C)C[C@H](NC(=O)[C@@H]1CCCN1C(=O)[C@H](CS)NC(=O)[C@H](C)NC(=O)[C@H](C)NC(=O)[C@H](CC(C)C)NC(=O)[C@H](CC(C)C)NC(=O)[C@H](CC(C)C)NC(=O)[C@H](C)NC(=O)[C@H](C)NC(=O)[C@H](C)NC(=O)[C@H](CCCNC(=N)N)NC(=O)[C@@H](NC(=O)[C@H](CCC(=O)O)NC(=O)[C@H](CO)NC(=O)[C@H](CO)NC(=O)[C@H](CCCNC(=N)N)NC(=O)[C@H](Cc1ccc(O)cc1)NC(=O)[C@H](CS)NC(=O)[C@H](CCC(=O)O)NC(=O)CNC(=O)[C@@H](N)Cc1ccccc1)C(C)C)C(=O)O [M4nt_R640A/R644A/R645A] (H-FGECYRSSEVRAAALLLAACPL-OH)
17 | CC(C)C[C@H](NC(=O)[C@@H]1CCCN1C(=O)[C@H](CS)NC(=O)[C@H](CCCNC(=N)N)NC(=O)[C@H](CCCNC(=N)N)NC(=O)[C@H](CC(C)C)NC(=O)[C@H](CC(C)C)NC(=O)[C@H](CC(C)C)NC(=O)[C@H](C)NC(=O)[C@H](C)NC(=O)[C@H](C)NC(=O)[C@H](CCCNC(=N)N)NC(=O)[C@@H](NC(=O)[C@H](CCC(=O)O)NC(=O)[C@H](CO)NC(=O)[C@H](CO)NC(=O)[C@H](CCCNC(=N)N)NC(=O)[C@H](Cc1ccc(O)cc1)NC(=O)[C@H](CS)NC(=O)[C@H](CCC(=O)O)NC(=O)CNC(=O)[C@@H](N)Cc1ccccc1)C(C)C)C(=O)O [M4nt_R640A] (H-FGECYRSSEVRAAALLLRRCPL-OH)
